Assay results as given in patent US5733931A, “Cyclohexanediurea derivative and process for its production” (Nissin Food Products Co., Ltd., priority 1993, dated 1998).
One block for each compound: values may come before it.

Assays:
serum cholesterol [1] = assay: Serum cholesterol lowering effect in rat having high cholesterol [3-1]; type: in vivo, SD-type (Sprague-Dawley) male rat; conditions: oral, once a day for 5 days, dissolved in saline, Table 12
Procedure: 3) Cholesterol Lowering Effect
[3-1] Using a rat having high cholesterol, compounds of the invention were tested for their serum cholesterol lowering effects by the following method. A 6-week-old SD-type (Sprague-Dawley) male rat was fed with food containing 1% of cholesterol, 0.5% of cholic acid and 5% of olive oil for 2 days and then orally administered the food and a compound of the invention as dissolved in saline once a day for 5 days starting on day 3. Four hours after the final administration, a blood sample was taken. The total cholesterol in the serum of the test group was measured and compared with that of the control group.

[2] = biological target: ACAT (Acyl-CoA: cholesterol acyltransferase) enzyme of rabbit liver microsome; assay: Inhibitory effect on ACAT enzyme (No.1), rabbit liver microsome; type: biochemical; conditions: Table 9
Procedure: 1) Inhibitory effect on ACAT (Acyl-CoA: cholesterol acyltransferase) enzyme (No.1)
Compounds of the invention were tested for their inhibitory effects on ACAT enzyme of rabbit liver microsome by the method of J. G. Heider (J. of Lipid Res., vol. 24, 1127-1134, 1983). More specifically, the test was done by measuring the amount of labelled cholesterol oleate ester produced from oleic acid CoA (coenzyme A) labelled by radiation.

[3] = test system: ACAT enzyme of human HepG2 cells; assay: ACAT enzyme activity of human HepG2 cells (microsome fractions); type: biochemical; conditions: Table 11, read-out: IC50, inhibitory effect on ACAT enzyme activity, human HepG2
Procedure: (§1) ACAT enzyme activities of the microsomes were determined by the method of J. G. Heider (J. Lipid Res., 24, 1127-1134, 1983). A test sample dissolved in 1% dimethylsulfoxide was added to a microsome fraction (100 μg), a phosphoric acid buffer (0.154M) having pH 7.4, 1-^14 C-oleoyl CoA (36 μM), dithiosleitol (2 mM) and bovine blood serum albumin (36 μg/ml). The reaction mixture adjusted to a final capacity of 0.5 ml was incubated at 37° C. for 60 minutes. A mixture (6 ml) of chloroform and methanol (2:1) was added and the reaction was stopped. Cholesterol oleate was extracted with chloroform and separated by thin-layer chromatography. ACAT enzyme activities of the microsome fractions were determined by radiation measurement.
(§2) [2-2] ACAT enzyme activities of human HepG2 and CaCo2 cells
(§3) Human HepG2 and CaCo2 cells purchased from ATCC (AMERICAN TYPE CULTURE COLLECTION) were used in this test.
(§4) Using RPMI 1640 medium for HepG2 and DMEM medium for CaCo2, HepG2 and CaCo2 cells were cultured with 40 ml of each medium containing 10% bovine blood serum, 50 I.U. of penicillin and 50 μg/ml of streptomycin in a 5% CO2 incubator at 37° C. The cells were then monolayer-culturedwith 80 ml of each medium containing […] of cholesterol and 5 μg/ml of 25-0H cholesterol in a 175 cm flask for 5 hours. The homogenizes of these cells were subjected to centrifugation at 105,000 g to collect microsome fractions. ACAT enzyme activities of the microsome fractions were determined by the above-mentioned method.

[4] = test system: ACAT enzyme of human CaCo2 cells; assay: ACAT enzyme activity of human CaCo2 cells (microsome fractions); type: biochemical; conditions: Table 11, read-out: IC50, inhibitory effect on ACAT enzyme activity, human CaCo2
Procedure: as §1, §2, §3, §4

[5] = biological target: T1, ACAT enzyme of rabbit small intestine mucosa microsomes (Oryctolagus cuniculus, UniProt G1SFD9); assay: Inhibitory effect on ACAT enzyme (No.2), rabbit small intestine mucosa microsomes; type: biochemical; conditions: pH 7.4, 37° C., 60 minutes, Table 10
T1 construct: Microsomes of the liver and small intestine mucosa were prepared; from tissue; host or cells: small intestine mucosa microsomes of a cholesterol-fed white male rabbit
T1 sequence (G1SFD9 1-524): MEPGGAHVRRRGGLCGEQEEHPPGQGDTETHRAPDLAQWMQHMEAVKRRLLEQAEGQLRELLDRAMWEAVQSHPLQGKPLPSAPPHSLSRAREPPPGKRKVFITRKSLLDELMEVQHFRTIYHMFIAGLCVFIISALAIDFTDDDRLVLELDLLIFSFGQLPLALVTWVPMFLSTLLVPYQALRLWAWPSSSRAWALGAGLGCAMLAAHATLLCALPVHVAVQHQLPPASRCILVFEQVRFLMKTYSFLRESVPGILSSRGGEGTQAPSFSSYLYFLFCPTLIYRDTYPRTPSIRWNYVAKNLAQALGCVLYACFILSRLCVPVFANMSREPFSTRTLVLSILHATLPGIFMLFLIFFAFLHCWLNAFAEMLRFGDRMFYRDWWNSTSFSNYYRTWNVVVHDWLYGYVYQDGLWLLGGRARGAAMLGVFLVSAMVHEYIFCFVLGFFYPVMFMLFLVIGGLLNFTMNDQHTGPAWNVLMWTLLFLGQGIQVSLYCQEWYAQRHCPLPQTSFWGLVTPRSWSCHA
Procedure: (§5) 2) Inhibitory effect on ACAT (Acyl-CoA: cholesterol acyltransferase) enzyme (No.2)
(§6) [2-1] ACAT enzyme activities of rabbit liver and small intestine mucosa microsomes
(§7) A white male rabbit was fed with a […] cholesterol-containing food for four weeks and bleeding-slaughtered to extract its liver and small intestine. Microsomes of the liver and small intestine mucosa were prepared by the method of C. Marco et al. (Biochim. Biophys. Acta, 617, 458-471, 1980).
as §1

serum cholesterol [6] = assay: Serum cholesterol lowering effect in rat having high cholesterol [3-2]; type: in vivo, SD-type (Sprague-Dawley) male rat; conditions: oral, once a day for the last 5 days, Tween 80 and saline suspension, Table 13
Procedure: [3-2] Using a rat having high cholesterol, compounds of the invention were tested for their serum cholesterol lowering effects by the following method. A 6-week-old SD-type (Sprague-Dawley) male rat was fed with food containing 1% of cholesterol, 0.5% of cholic acid and 5% of olive oil for 7 days. For the last 5 days, a test sample suspended in some drops of Tween 80 and saline was orally administered once a day. Four hours after the final administration, a blood sample was taken from celiac aorta of the rat under etherization. The total cholesterol in the serum of the test group was measured by the oxygen method and compared with that of the control group.

[7] = biological target: ACAT enzyme of rabbit liver microsomes; assay: Inhibitory effect on ACAT enzyme (No.2), rabbit liver microsomes; type: biochemical; conditions: pH 7.4, 37° C., 60 minutes, Table 10
Procedure: as §5, §6, §7, §1

SMILES: CN(C)c1ccc(NC(=O)N(C[C@H]2CCC[C@H](CN(C(=O)Nc3ccc(N(C)C)cc3)C3CCCCCC3)C2)C2CCCCCC2)cc1 (relative stereo) [Example 61, Trans-1,3-bis[[1-cycloheptyl-3-(4-dimethylaminophenyl)ureido]methyl]cyclohexane]
Cholesterol lowering effect, % (serum total cholesterol vs control group) (serum cholesterol [1]; 3 mg/kg): 48% | Cholesterol lowering effect, % (serum total cholesterol vs control group) (serum cholesterol [1]; 10 mg/kg): 82% | IC50 [2]: 36 nM

SMILES: CN(C)c1ccc(NC(=O)N(CC(C)(C)C)C[C@H]2CC[C@H](CN(CC(C)(C)C)C(=O)Nc3ccc(N(C)C)cc3)CC2)cc1 [Example 7, Trans-1,4-bis[[3-(4-dimethylaminophenyl)-1-neopentylureido]methyl]cyclohexane]
Cholesterol lowering effect, % (serum total cholesterol vs control group) (serum cholesterol [1]; 3 mg/kg): 105% | Cholesterol lowering effect, % (serum total cholesterol vs control group) (serum cholesterol [1]; 10 mg/kg): 103% | IC50 [2]: 100 nM

SMILES: CN(C)c1ccc(NC(=O)N(C[C@H]2CC[C@H](CN(C(=O)Nc3ccc(N(C)C)cc3)C3CCCC3)CC2)C2CCCC2)cc1 [Example 11, Trans-1,4-bis[[1-cyclopentyl-3-(4-dimethylaminophenyl)ureido]methyl]cyclohexane]
Cholesterol lowering effect, % (serum total cholesterol vs control group) (serum cholesterol [1]; 3 mg/kg): 108% | Cholesterol lowering effect, % (serum total cholesterol vs control group) (serum cholesterol [1]; 10 mg/kg): 101% | IC50 [2]: 47 nM

SMILES: CN(C)c1ccc(NC(=O)N(C[C@H]2CC[C@H](CN(C(=O)Nc3ccc(N(C)C)cc3)C3CCCCC3)CC2)C2CCCCC2)cc1 [Example 12, Trans-1,4-bis[[1-cyclohexyl-3-(4-dimethylaminophenyl)ureido]methyl]cyclohexane]
IC50 [3]: 1.1 nM | IC50 [4]: 0.74 nM | IC50 [5]: 24 nM | Cholesterol lowering effect, % (serum total cholesterol vs control group) (serum cholesterol [6]; 1 mg/kg): 96.2% | Cholesterol lowering effect, % (serum total cholesterol vs control group) (serum cholesterol [6]; 3 mg/kg): 92.6% | IC50 [7]: 36 nM

SMILES: O=C(Nc1ccc(N2CCCCC2)cc1)N(C[C@H]1CC[C@H](CN(C(=O)Nc2ccc(N3CCCCC3)cc2)C2CCCCC2)CC1)C1CCCCC1 [Example 13, Trans-1,4-bis[[1-cyclohexyl-3-(4-piperidinophenyl)ureido]methyl]cyclohexane]
IC50 [3]: 0.86 nM | IC50 [4]: 1.1 nM | IC50 [5]: 130 nM | Cholesterol lowering effect, % (serum total cholesterol vs control group) (serum cholesterol [6]; 1 mg/kg): 76.8% | Cholesterol lowering effect, % (serum total cholesterol vs control group) (serum cholesterol [6]; 3 mg/kg): 96.2% | IC50 [7]: 35 nM

SMILES: O=C(Nc1ccc(N2CCOCC2)cc1)N(C[C@H]1CC[C@H](CN(C(=O)Nc2ccc(N3CCOCC3)cc2)C2CCCCC2)CC1)C1CCCCC1 [Example 14-4, Trans-1,4-bis[[1-cyclohexyl-3-(4-morpholinophenyl)ureido]methyl]cyclohexane]
Cholesterol lowering effect, % (serum total cholesterol vs control group) (serum cholesterol [6]; 1 mg/kg): 79.9% | Cholesterol lowering effect, % (serum total cholesterol vs control group) (serum cholesterol [6]; 3 mg/kg): 98.8%

SMILES: CN(C)c1ccc(NC(=O)N(C[C@H]2CC[C@H](CN(C(=O)Nc3ccc(N(C)C)cc3)C3CCCCCC3)CC2)C2CCCCCC2)cc1 [Example 15, Trans-1,4-bis[[1-cycloheptyl-3-(4-dimethylaminophenyl)ureido]methyl]cyclohexane]
Cholesterol lowering effect, % (serum total cholesterol vs control group) (serum cholesterol [1]; 3 mg/kg): 93% | Cholesterol lowering effect, % (serum total cholesterol vs control group) (serum cholesterol [1]; 10 mg/kg): 99% | IC50 [2]: 38 nM

SMILES: CN(C)c1ccc(NC(=O)N(C[C@H]2CC[C@@H](CN(C(=O)Nc3ccc(N(C)C)cc3)C3CCCCC3)CC2)C2CCCCC2)cc1 [Example 42, Cis-1,4-bis[[1-cyclohexyl-3-(4-dimethylaminophenyl)ureido]methyl]cyclohexane]
Cholesterol lowering effect, % (serum total cholesterol vs control group) (serum cholesterol [1]; 3 mg/kg): 110% | Cholesterol lowering effect, % (serum total cholesterol vs control group) (serum cholesterol [1]; 10 mg/kg): 102% | IC50 [2]: 60 nM

SMILES: CN(C)c1ccc(NC(=O)N(C[C@H]2CC[C@@H](CN(C(=O)Nc3ccc(N(C)C)cc3)C3CCCCCC3)CC2)C2CCCCCC2)cc1 [Example 43, Cis-1,4-bis[[1-cycloheptyl-3-(4-dimethylaminophenyl)ureido]methyl]cyclohexane]
Cholesterol lowering effect, % (serum total cholesterol vs control group) (serum cholesterol [1]; 3 mg/kg): 88% | Cholesterol lowering effect, % (serum total cholesterol vs control group) (serum cholesterol [1]; 10 mg/kg): 107% | IC50 [2]: 50 nM

SMILES: CN(C)c1ccc(NC(=O)N(C[C@@H]2CCC[C@H](CN(C(=O)Nc3ccc(N(C)C)cc3)C3CCCCCC3)C2)C2CCCCCC2)cc1 [Example 83, Cis-1,3-bis[[1-cycloheptyl-3-(4-dimethylaminophenyl)ureido]methyl]cyclohexane]
Cholesterol lowering effect, % (serum total cholesterol vs control group) (serum cholesterol [1]; 3 mg/kg): 43% | Cholesterol lowering effect, % (serum total cholesterol vs control group) (serum cholesterol [1]; 10 mg/kg): 91% | IC50 [2]: 46 nM

SMILES: CN(C)c1ccc(NC(=O)N(Cc2cccc(CN(C(=O)Nc3ccc(N(C)C)cc3)C3CCCCCC3)c2)C2CCCCCC2)cc1 [YM-17E, reference compound]
Cholesterol lowering effect, % (serum total cholesterol vs control group) (serum cholesterol [1]; 3 mg/kg): 38% | Cholesterol lowering effect, % (serum total cholesterol vs control group) (serum cholesterol [1]; 10 mg/kg): 91% | IC50 [2]: 23 nM | IC50 [3]: 9.6 nM | IC50 [4]: 14 nM | Cholesterol lowering effect, % (serum total cholesterol vs control group) (serum cholesterol [6]; 3 mg/kg): 38.0% | IC50 [7]: 23 nM

Continued, in another order:

IC50 [3]: 1.5 nM | IC50 [4]: 1.5 nM | IC50 [5]: 29 nM | IC50 [7]: 78 nM
SMILES: CN(C)c1ccc(NC(=O)N(C[C@H]2CC[C@H](CN(C(=O)Nc3ccc(N(C)C)cc3)C3CCCCC3)CC2)C2CCCCC2)cc1 [Example 12-1, Trans-1,4-bis[[1-cyclohexyl-3-(4-dimethylaminophenyl)ureido]methyl]cyclohexane]
Cholesterol lowering effect, % (serum total cholesterol vs control group) (serum cholesterol [6]; 1 mg/kg): 100.4% | Cholesterol lowering effect, % (serum total cholesterol vs control group) (serum cholesterol [6]; 3 mg/kg): 108.3%

IC50 [3]: 0.4 nM | IC50 [4]: 0.8 nM | IC50 [5]: 140 nM | IC50 [7]: 180 nM
SMILES: O=C(Nc1ccc(N2CCCC2)cc1)N(C[C@H]1CC[C@H](CN(C(=O)Nc2ccc(N3CCCC3)cc2)C2CCCCC2)CC1)C1CCCCC1 [Example 14-1, Trans-1,4-bis[[1-cyclohexyl-3-(4-pyrrolidinophenyl)ureido]methyl]cyclohexan]
Cholesterol lowering effect, % (serum total cholesterol vs control group) (serum cholesterol [6]; 1 mg/kg): 80.9% | Cholesterol lowering effect, % (serum total cholesterol vs control group) (serum cholesterol [6]; 3 mg/kg): 96.2%

IC50 [3]: 0.27 nM | IC50 [4]: 1.6 nM | IC50 [5]: 52 nM | IC50 [7]: 62 nM
SMILES: O=C(Nc1ccc(N2CCCCCC2)cc1)N(C[C@H]1CC[C@H](CN(C(=O)Nc2ccc(N3CCCCCC3)cc2)C2CCCCC2)CC1)C1CCCCC1 [Example 14-2, Trans-1,4-bis[[1-cyclohexyl-3-(4-homopiperidinophenyl)ureido]methyl]cyclohexane]
